Measured values reported in patent US20230270781A1, “TREATMENT OR PREVENTION OF PRO-INFLAMMATORY DISEASES OR CONDITIONS USING INDUCED REGULATORY T (ITREG) CELLS” (RAPA THERAPEUTICS, LLC, priority 2020, published 2023).

Assays:
Assay type in all cases: cell-based
[1] = tested on: human CD4+ and CD8+ T cells; assay: Luminex cytokine analysis of de-differentiated T cells cultured in polarization-neutral media; conditions: Vitamin D concentration during the de-differentiation interval
Description: FIGS. 11A-11D depict the inflammatory Th1/Th17 cytokine analysis of cultured de-differentiated T cells in polarization-neutral media. […] After 3-days, the de-differentiated T cells were co-stimulated (typical bead-to-T cell ratio of 3:1) in media supplemented with the T cell growth cytokines rhu IL-2 (100 IU/ml) and rhu IL-7 (10 ng/ml), which are not potent in terms of inducing T cell polarization. After 10 days in culture (total, day 13 of culture), the T cells were harvested, washed, and re-stimulated with 3/28 beads (3:1 ratio) for 24 hr; the resultant supernatant was harvested and tested for cytokine content by Luminex multi-analyte method. All results shown are expressed as cytokine level in pg per ml per 1 × 10^6 cells/ml/24 hr.
FIGS. 12A-12D depicts the IL-2 and Th2-type cytokine analysis of cultured de-differentiated T cells in polarization-neutral media. […] After 3-days, the de-differentiated T cells were co-stimulated (typical bead-to-T cell ratio of 3:1) in media supplemented with the T cell growth cytokines rhu IL-2 (100 IU/ml) and rhu IL-7 (10 ng/ml), which are not potent in terms of inducing T cell polarization. […] All results shown are expressed as cytokine level in pg per ml per 1 × 10^6 cells/ml/24 hr.

[2] = tested on: human CD4+ and CD8+ T cells; assay: RNA expression analysis (Luminex Quantigene) after 3-day de-differentiation culture; conditions: relative to control Th1/Tc1 culture, temsirolimus 1 µM
Description: At the end of the de-differentiation interval, cells were harvested, RNA was isolated, and RNA expression analysis was performed by Luminex Quantigene method. All results shown represent relative RNA expression, with results normalized to a value of 1.0 for the Th1/Tc1 control culture.

[3] = tested on: human CD4+ and CD8+ T cells; assay: Western blot for mTORC1 complex protein Raptor after 3-day de-differentiation culture
Excerpt: After the 3-day culture interval, the T cells were harvested, and protein was isolated and subjected to western blot analysis for the mTORC1 complex protein, Raptor, and the housekeeping gene, Actin.

[4] = tested on: human CD4+ and CD8+ T cells; assay: Western blot for Raptor, Rictor, p70S6K, SGK1 after 3-day de-differentiation culture; conditions: relative to control culture without the three inhibitors; temsirolimus 1 µM, Vitamin D 0.03-1.0 nM, Daclizumab 50 µg/ml
Excerpt: After the 3-day culture interval, the T cells were harvested, and protein was isolated and subjected to western blot analysis for the mTORC1 complex protein, Raptor; the mTORC2 complex protein, Rictor; the post-mTORC1 protein p70S6K; the post-mTORC2 protein, SGK1; and the housekeeping gene, GAPDH.

[5] = tested on: human CD4+ and CD8+ T cells; assay: T cell yield at day 13 after de-differentiation interval and re-stimulation without inhibitors; conditions: columns #5 and #6; Vitamin D reduced to 0.01 nM or increased to 1.0 nM
Description: After 10 days (13 days of total culture), the T cells were harvested, enumerated, and evaluated by flow cytometry. FIG. 8 illustrates the effect of culture components during the de-differentiation interval on subsequent T cell yield (at day 13 of culture). […] After the 3-day interval, media was exchanged to fresh X-Vivo 20 without inhibitors, high-level co-stimulation was provided (3:1 bead-to-T cell ratio), and the T cell growth cytokines IL-2 (100 IU/ml) and IL-7 (10 ng/ml) were added. At day 13 of culture, viable T cells were enumerated and the overall yield is shown relative to day 0 input number.

[6] = tested on: human CD4+ and CD8+ T cells; assay: Western blot for autophagy-related molecule p62 after 3-day de-differentiation culture; conditions: 3-day culture, 1:3 bead-to-T cell ratio; temsirolimus 1.0 or 0.3 µM, Vitamin D 0.01-1.0 nM, Daclizumab 50 µg/ml
Excerpt: After the 3-day culture interval, the T cells were harvested, and protein was isolated and subjected to western blot analysis for the autophagy-related gene, p62, and the housekeeping gene, Actin.

[7] = 3-day culture, bead-to-T cell ratio 1:3, Vitamin D 0.1 or 1.0 nM

SMILES: C=C1/C(=C\C=C2/CCC[C@]3(C)[C@@H]([C@H](C)CCCC(C)(C)O)CC[C@@H]23)C[C@@H](O)C[C@@H]1O [Vitamin D, 1,25-vitamin D]
- IFN-γ and TNF-α levels with Vitamin D 0.01 nM relative to 0.1 nM [1]: somewhat higher levels
- Granzyme B RNA expression [2, 7]: reduction
- IFN-gamma RNA expression [2, 7]: reduction
- IL-10 RNA expression [2, 7]: reduction
- IL-7 receptor alpha RNA expression ([2]; Vitamin D 1.0 nM): not Vitamin D alone
- KLF4 RNA expression ([2]; Vitamin D 1.0 nM): neither temsirolimus nor Vitamin D alone increased
- KLF10 RNA expression ([2]; Vitamin D 1.0 nM): does not act alone to up-regulate
- HIF-1-α RNA expression ([2]; Vitamin D 0.1 to 1.0 nM): did not down-regulate
- Nanog transcription factor RNA expression ([2]; Vitamin D 0.1 to 1.0 nM): does not act alone to up-regulate
- STAT1 RNA expression ([2]; Vitamin D 0.1 to 1.0 nM): acts alone to beneficially down-regulate
- T-BET RNA expression ([2]; Vitamin D 0.1 to 1.0 nM): acts alone to beneficially down-regulate
- Raptor inhibition at Vitamin D 0.01 nM ([3]; Vitamin D level reduced to 0.01 nM): sub-optimal Raptor inhibition
- Raptor expression at Vitamin D 0.3 nM ([3]; culture 7, 0.3 nM Vitamin D, versus 0.1 nM): higher level of Raptor expression
- Rictor expression (western blot) [4]: effective
- T cell yield at day 13 with Vitamin D 0.01 nM or 1.0 nM [5]: very low yield
- p62 expression (western blot, normalized by actin) [6]: increased p62 expression
